Active and inactive are the calls of the source.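 How the source made its calls: active means AC50, the dose giving half-maximal effect, exceeds a fixed cutoff for a compound that rescues yeast growth under heat; inactive means the rest, inconclusive results apart.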
tested on: S. cerevisiae Burl-1 ts mutant growth, BacTiter-Glo, 38.5C 24 h; assay: growth induction of Burl-1 ts yeast mutant, dose response, counter-screen for SUMOylation pathway inhibitor project, whole organism, S. cerevisiae, luminescence (AID 463199)

| SMILES | AC50 |
| --- | --- |
| COc1ccc(C(=O)NCCSc2ccc(C)cc2)cc1 | > 42 µM (inactive) |
| Cc1ccc(C)c(-n2nnnc2SCC(=O)Nc2c(C)n(C)n(-c3ccccc3)c2=O)c1 | > 42 µM (inactive) |
| Cc1cc(C)cc(NC(=O)C2CCCN(S(=O)(=O)c3ccc4[nH]c(=O)ccc4c3)C2)c1 (stereo not drawn) | > 42 µM (inactive) |
| O=C(Nc1ccc2nc(-c3ccc4nc[nH]c4c3)[nH]c2c1)c1cccs1 | > 42 µM (inactive) |
| COc1ccc2[nH]c(C(=O)N/N=C/c3ccccc3OC)cc2c1 | > 42 µM (inactive) |
| COc1ccc(OCC(=O)Nc2ccc(C)cc2)cc1 | > 42 µM (inactive) |
| Cc1cc(C)n(C(=O)c2ccccc2[N+](=O)[O-])n1 | > 42 µM (inactive) |
| COc1ccc(-c2noc(CSc3nc(-c4ccccc4)cc(=O)[nH]3)n2)cc1OC | > 42 µM (inactive) |
| COc1ccc(NC(=O)CN(C)C(=O)c2cc(C)on2)cc1 | > 42 µM (inactive) |
| CCN(CC)/C(=N\S(=O)(=O)c1ccc(F)cc1)c1ccccc1 | > 21 µM (inactive) |
| O=c1[nH][nH]c(C(F)(F)F)c1C=NCc1cccs1 | > 42 µM (inactive) |
| CCCCN(C)C(=O)CCC(=O)Nc1ccc2nc(N3CCN(C)CC3)cc(C)c2c1 | > 42 µM (inactive) |
| CC(=O)Nc1ccc(-c2csc(NC(=O)C3CC(=O)N(c4ccc5c(c4)OCCO5)C3)n2)cc1 (stereo not drawn) | > 42 µM (inactive) |
| N/C(=N\NC(=O)c1sccc1OCc1ccc(Cl)cc1Cl)c1ccccn1 | > 42 µM (inactive) |
| C=C(C)C(=O)Nc1cccnc1Oc1ccc(F)cc1F | > 42 µM (inactive) |
| O=C(CCc1nc2sc3c(c2c(=O)[nH]1)CCCC3)N1CCN(c2ccccc2)CC1 | > 42 µM (inactive) |
| C=CCN1C(=O)/C(=C\c2ccc(C)cc2)N=C1SCC(=O)NCCC | > 42 µM (inactive) |
| CCOP(=O)(OCC)c1cc(CC)ccc1O | > 42 µM (inactive) |
| COc1ccccc1NC(=O)NCCc1c[nH]c2ccccc12 | > 42 µM (inactive) |
| COc1ccc(Nc2cc(NCCCO)c([N+](=O)[O-])c3nonc23)cc1 | > 42 µM (inactive) |
| Cc1ccc(S(=O)(=O)N2[C@@H](c3ccccc3F)C(C(=O)O)=CC[C@H]2c2ccc3c(c2)OCO3)cc1 | > 42 µM (inactive) |
| COc1cc(/C=N/n2c(C3CCCCC3)n[nH]c2=S)cc(OC)c1O | > 42 µM (inactive) |
| CCc1noc(C)c1C(=O)Nc1nc(-c2ccc(F)cc2)c(C)s1 | > 42 µM (inactive) |
| CN(C)CCNC(=O)c1scc2c1CCCC2 | > 42 µM (inactive) |
| CC(OC(=O)c1cc(S(=O)(=O)N2CCOCC2)ccc1F)C(=O)NCc1ccc2c(c1)OCO2 (stereo not drawn) | > 42 µM (inactive) |

| SMILES | AC50 |
| --- | --- |
| CC1(C)Oc2ccc3ccc(=O)oc3c2/C(=C/Nc2ccc(O)cc2)C1=O | > 42 µM (inactive) |
| CN(C)C(=O)c1coc2nc3ccccc3nc12 | > 42 µM (inactive) |
| C=C1C(O)[C@@H]2O[C@]3(CC[C@H](/C=C/C(C)[C@@H]4CC(C)=CC5(O[C@H](C[C@@](C)(O)C(=O)O)CCC5O)O4)O3)CC[C@H]2O[C@@H]1C(O)CC(C)[C@H]1OC2(CCCCO2)CCC1C (stereo partly drawn) | 4.06 µM |
| COC(=O)c1ccccc1NC(=O)c1cnn2c(C)cc(C)nc12 | > 42 µM (inactive) |
| O=Cc1ccccc1OCCN1CCCC1=O | > 42 µM (inactive) |
| Cc1ccc(C)c(OCCCC(=O)N2CCOCC2)c1 | > 42 µM (inactive) |
| COCC(C)n1c(C)cc(C(=O)CSc2ccc(NC(C)=O)cc2)c1C (stereo not drawn) | > 42 µM (inactive) |
| COC(CNC(=O)c1cn(C)c2ccc(S(=O)(=O)N3CCOCC3)cc2c1=O)OC | > 42 µM (inactive) |
| CSc1nsc(SCC(=O)Nc2cccc(C(=O)O)c2)n1 | > 42 µM (inactive) |
| CCCCc1ccc(S(=O)(=O)NNC(=S)NCc2ccco2)cc1 | > 42 µM (inactive) |
| COc1ccc(N2CCN(C(=O)CNC(=O)Cc3ccc(Cl)cc3)CC2)cc1 | > 42 µM (inactive) |
| COc1ccc(NC(=O)CN2C(=O)c3ccccc3S2(=O)=O)cc1OC | > 42 µM (inactive) |
| O=C(NNC(=O)c1ccccc1O)c1ccco1 | > 42 µM (inactive) |
| CCOc1cc(NC(=O)c2cccs2)c(OCC)cc1NC(=O)CCC(=O)NCCN1CCOCC1 | > 42 µM (inactive) |
| CN(c1ccccc1)c1ccc(/C=C/[N+](=O)[O-])cc1 | > 42 µM (inactive) |
| COc1cc(COc2ccc3c(C)c(CC(=O)O)c(=O)oc3c2C)cc(OC)c1OC | > 42 µM (inactive) |
| Oc1c(Br)cc(Br)cc1/C=N/N1CCN(Cc2ccccc2)CC1 | > 42 µM (inactive) |
| C[C@H](NC(=O)OC(C)(C)C)C(=O)NCC1CCC(C(=O)N[C@@H](Cc2ccccc2)C(=O)O)CC1 (stereo partly drawn) | > 42 µM (inactive) |
| COc1ccc(NC(=O)Nc2ccccc2C(=O)N2CCCC2)cc1 | 1.83 µM |
| CCOC(=O)Cn1c(=O)n(Cc2ccco2)c(=O)c2ccc(C(=O)NCCc3ccccc3)cc21 | > 42 µM (inactive) |
| COc1cc(/C=N/n2cnnc2)ccc1OCc1ccccc1 | > 42 µM (inactive) |
| Cc1nc(C)n(CC(=O)N2CCCC(C(=O)c3cccc4ccccc34)C2)n1 (stereo not drawn) | > 42 µM (inactive) |
| CCOC(=O)C1CCN(Cc2ccc(OCc3ccccc3)cc2)CC1 | > 42 µM (inactive) |
| CCOC(=O)C1=C(C)NC(=O)CC1c1cc2c(cc1[N+](=O)[O-])OCO2 (stereo not drawn) | 22.3 µM |
| O=C1CSC(c2ccc(F)c(F)c2)N1c1ccccc1F (stereo not drawn) | > 42 µM (inactive) |

| SMILES | AC50 |
| --- | --- |
| O=C1OCc2cc(NS(=O)(=O)c3cccs3)ccc21 | > 42 µM (inactive) |
| Cc1ccc(Cn2c(NCCc3ccccc3)nc3c2c(=O)n(C)c(=O)n3C)cc1 | > 42 µM (inactive) |
| CCOC(=O)/C(C#N)=C\c1ccc(CC)s1 | > 42 µM (inactive) |
| CC(=O)Nc1nn(C)c2nc3ccc(C)cc3cc12 | > 42 µM (inactive) |
| CCOC(=O)C1(Cc2cccc(F)c2)CCN(C(=O)c2cnccn2)CC1 | > 42 µM (inactive) |
| COc1cc(C(=O)NCCC2=CCCCC2)ccc1OC1CCN(C(C)=O)CC1 | > 42 µM (inactive) |
| CC1C(=O)CC(c2ccccc2)N(C)C1c1ccccc1 (stereo not drawn) | > 42 µM (inactive) |
| CC(C(=O)NCCN1CCOCC1)(c1ccccc1)c1ccccc1 | > 42 µM (inactive) |
| CN1C2CCC1CC(OC(=O)c1ccc([N+](=O)[O-])cc1)C2 (stereo not drawn) | > 42 µM (inactive) |
| Cc1ccc(Nc2cc(C)nc3c(C)ccc([N+](=O)[O-])c23)cc1 | > 21 µM (inactive) |
| CC1(C)CC(=O)C(C=Nc2ccc(O)c(N=CC3=C(O)CC(C)(C)CC3=O)c2)=C(O)C1 | > 42 µM (inactive) |
| CCCc1nc(NCc2ccccc2)c(C#N)c2c1CCCC2 | > 42 µM (inactive) |
| NS(=O)(=O)c1cccc(NC(=O)CSc2nnnn2-c2ccccc2)c1 | > 42 µM (inactive) |
| CN(C)S(=O)(=O)c1ccc(C(=O)/C=C/c2cccnc2)cc1 | > 42 µM (inactive) |
| CC(CN1CCCCCC1)C(=O)NN (stereo not drawn) | > 42 µM (inactive) |
| CCCNC(=O)COC(=O)CCC(=O)c1cccs1 | > 42 µM (inactive) |
| CCc1cc(/C(Cc2ccccn2)=N\O)c(O)cc1O | > 42 µM (inactive) |
| CN(C(=O)c1cncc(Br)c1)C1C2CC3CC(C2)CC1C3 (stereo not drawn) | 8.94 µM |
| CCn1c(SCC(=O)N/N=C/c2ccccc2OCC(=O)O)nnc1-c1ccc(C(C)(C)C)cc1 | > 42 µM (inactive) |
| CCn1cc(C(=O)N(C)c2ccc(OC)cc2OC)c2cc(OC)c(OC)cc2c1=O | > 42 µM (inactive) |
| CN(C)C(=O)CSc1nc2ccc(N3C(=O)c4ccccc4C3=O)cc2s1 | > 42 µM (inactive) |
| CCOc1cc(/C=C2\NC(=O)NC2=O)ccc1OC(C)C(=O)O (stereo not drawn) | > 42 µM (inactive) |
| O=C(CSc1nc(-c2ccccc2)nc2ccc(F)cc12)Nc1cccc(C(=O)O)c1 | > 42 µM (inactive) |
| COc1cc2cc(C)c3nnc(SCC(=O)Nc4cc(C)on4)n3c2cc1OC | > 42 µM (inactive) |
| CC1(C)C2CC=C(/C=N/NC(=S)Nc3cccnc3)C1C2 (stereo not drawn) | > 42 µM (inactive) |

| SMILES | AC50 |
| --- | --- |
| CN1C(=O)C(=Cc2cn(CC(=O)N3CCCC3)c3ccccc23)C(=O)N(C)C1=O | > 42 µM (inactive) |
| N=c1ncn(CC(O)CO)c2nc(N3CCOCC3)[nH]c12 (stereo not drawn) | > 42 µM (inactive) |
| CCOc1ccc(Cl)cc1S(=O)(=O)N1CCC(C(=O)NCc2cccnc2)CC1 | > 42 µM (inactive) |
| CCOC(=O)N1CCN(C(=O)c2ccc(OC)c(OC)c2)CC1 | > 42 µM (inactive) |
| COc1cccc(OC)c1C(=O)Nc1ccc2c(c1)N(S(=O)(=O)c1cccs1)CCC2 | > 42 µM (inactive) |
| COc1ccc(CCNC(=O)c2cc(-c3ccco3)on2)cc1OC | > 42 µM (inactive) |
| CCN(CC)S(=O)(=O)c1cc(NC(=O)COC(=O)CCc2nc3ccccc3s2)ccc1C | > 42 µM (inactive) |
| Cc1nn(-c2ccccc2)c(N)c1N=Nc1cccc(S(=O)(=O)N2CCOCC2)c1 | > 42 µM (inactive) |
| O=S1(=O)CC(N2CCCCC2)C(N2CCCCC2)C1 (stereo not drawn) | > 42 µM (inactive) |
| CCN(CC)C(=O)Cn1c(=O)n(CCCC(=O)NCc2ccccc2)c(=O)c2sccc21 | > 42 µM (inactive) |
| CCOC(=O)COc1nc(-c2ccc(C)cc2)cc(-c2ccco2)c1C#N | > 42 µM (inactive) |
| NC(=O)c1cccc2cc3ccccc3cc12 | > 42 µM (inactive) |
| COc1ccc(CC(=O)NCCN2CCOCC2)cc1 | > 42 µM (inactive) |
| CC(NC(=O)c1cccs1)c1ccc(Br)cc1 (stereo not drawn) | > 42 µM (inactive) |
| O=C(CSc1ncccc1C(=O)O)NC1CCCCC1 | > 42 µM (inactive) |
| O=C(c1ccco1)N1CCN(CC(=O)N2c3ccccc3CCc3ccccc32)CC1 | > 42 µM (inactive) |
| Cc1ccccc1-c1nc(CN2CCCC(C(=O)NCc3cccnc3)C2)c(C)o1 (stereo not drawn) | > 42 µM (inactive) |
| COc1ccc(S(=O)(=O)N2CCc3cc4c(cc3C2C)OCCCO4)cc1 (stereo not drawn) | > 42 µM (inactive) |
| CCN(CC)c1ccc(/C=N/NC(=O)OC(C)(C)C)cc1 | > 42 µM (inactive) |
| CC(C)c1ccc(C2C(C(=O)c3ccco3)=C(O)C(=O)N2CCN2CCOCC2)cc1 (stereo not drawn) | > 42 µM (inactive) |
| Cc1ccc(C(=O)NCCCN2CCOCC2)cc1 | > 42 µM (inactive) |
| COc1ccccc1N1CCN(C(=O)c2ccc(-c3ccccc3)cc2)CC1 | > 42 µM (inactive) |
| Cc1cccc(N2CN=c3s/c(=C\c4ccccn4)c(=O)n3C2)c1 | > 42 µM (inactive) |
